From ChEMBL document CHEMBL2321798, “Polyamino geranic derivatives as new chemosensitizers to combat antibiotic resistant gram-negative bacteria” (Bioorg Med Chem, 2013) come the findings set out here.

Usually MIC stands for the smallest concentration in the dilution series that meets the test's criterion for growth inhibition. By pIC50 is commonly meant −log10 of the IC50, conventionally taken in molar units. A low value points to a high IC50.

Test [1] concerns the target T1, AcrB protein (Klebsiella aerogenes) (UniProt Q9AEG1).
T1 sequence (whole entry): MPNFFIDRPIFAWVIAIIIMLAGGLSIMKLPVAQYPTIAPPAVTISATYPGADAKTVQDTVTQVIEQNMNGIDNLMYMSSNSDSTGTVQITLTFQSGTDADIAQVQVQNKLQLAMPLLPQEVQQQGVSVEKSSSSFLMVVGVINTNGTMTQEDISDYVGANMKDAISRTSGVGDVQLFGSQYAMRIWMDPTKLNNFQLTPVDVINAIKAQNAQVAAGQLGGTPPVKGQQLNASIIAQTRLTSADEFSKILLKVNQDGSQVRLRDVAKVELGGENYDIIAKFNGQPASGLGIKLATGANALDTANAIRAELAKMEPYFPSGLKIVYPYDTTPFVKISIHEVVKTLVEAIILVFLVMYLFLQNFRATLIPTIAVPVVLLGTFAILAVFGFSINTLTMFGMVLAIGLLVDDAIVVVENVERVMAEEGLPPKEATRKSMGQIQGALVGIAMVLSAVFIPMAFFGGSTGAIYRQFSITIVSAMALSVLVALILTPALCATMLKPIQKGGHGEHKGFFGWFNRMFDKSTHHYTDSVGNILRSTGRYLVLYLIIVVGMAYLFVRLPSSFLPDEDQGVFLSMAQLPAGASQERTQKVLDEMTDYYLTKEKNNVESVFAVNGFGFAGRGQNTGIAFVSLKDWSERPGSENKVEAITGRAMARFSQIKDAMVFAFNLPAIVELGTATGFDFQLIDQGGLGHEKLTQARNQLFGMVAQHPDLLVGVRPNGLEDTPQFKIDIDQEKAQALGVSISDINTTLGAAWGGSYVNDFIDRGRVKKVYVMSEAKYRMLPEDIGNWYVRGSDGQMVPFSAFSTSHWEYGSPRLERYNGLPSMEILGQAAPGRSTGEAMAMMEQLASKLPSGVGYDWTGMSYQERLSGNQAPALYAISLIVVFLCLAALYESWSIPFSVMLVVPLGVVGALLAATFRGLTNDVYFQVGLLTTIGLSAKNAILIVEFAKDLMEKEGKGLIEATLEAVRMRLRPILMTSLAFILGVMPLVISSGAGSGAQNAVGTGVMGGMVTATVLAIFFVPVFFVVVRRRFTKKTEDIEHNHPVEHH
Kind of test: Inhibition of AcrB in Enterobacter aerogenes Ea289 assessed as glucose-induced 1,2' dinaphthylamine efflux after 18 hrs.

Test [2] concerns Klebsiella aerogenes. Kind of test: Antibacterial activity against Enterobacter aerogenes Ea289 after 18 hrs by broth dilution method. It is filed as functional. To be noted: Ea289, 18 h. A general note: Dilution methods test growth across graded concentrations, often in twofold steps.
The subject of test [3] is Salmonella typhimurium. Briefly: Antibacterial activity against Salmonella enterica Typhimurium BN10055 harboring deltaacrB after 18 hrs by broth dilution method. The format is functional, Salmonella enterica subsp. enterica serovar Typhimurium. To be noted: BN10055, 18 h.
The test system of test [4] is Klebsiella aerogenes. Briefly: Antibacterial activity against Enterobacter aerogenes Ea294 harboring Ea289deltaacrB after 18 hrs by broth dilution method. The format is functional. The note with it: Ea294, 18 h.
Test [5] relates to Salmonella typhimurium. Kind of test: Antibacterial activity against Salmonella enterica Typhimurium BN10055 after 18 hrs by broth dilution method. It is filed as functional, Salmonella enterica subsp. enterica serovar Typhimurium. To be noted: BN10055, 18 h.
Test [6] has as its system Klebsiella aerogenes. Briefly: Reduction of multidrug-resistant in Enterobacter aerogenes Ea289 assessed as ratio of chloramphenicol MIC to chloramphenicol MIC in presence of compound at 38 uM by micro-broth dilution method. The format is functional.
For test [7], the system named is Klebsiella aerogenes. Kind of test: Reduction of multidrug-resistant in Enterobacter aerogenes Ea289 assessed as ratio of nalidixic acid MIC to nalidixic acid MIC in presence of compound at 38 uM by micro-broth dilution method. It is filed as functional.
Test [8] has as its system Salmonella typhimurium. Kind of test: Reduction of multidrug-resistant in Salmonella enterica Typhimurium BN10055 assessed as ratio of nalidixic acid MIC to nalidixic acid MIC in presence of compound at 38 uM by micro-broth dilution method. The format is functional, Salmonella enterica subsp. enterica serovar Typhimurium.
Test [9] deals with Salmonella typhimurium. Briefly: Reduction of multidrug-resistant in Salmonella enterica Typhimurium BN10055 assessed as ratio of chloramphenicol MIC to chloramphenicol MIC in presence of compound at 38 uM by micro-broth dilution method. The format is functional, Salmonella enterica subsp. enterica serovar Typhimurium.
Test [10] has as its system Klebsiella aerogenes. Briefly: Reduction of multidrug-resistant in Enterobacter aerogenes Ea294 harboring Ea289deltaacrB assessed as ratio of chloramphenicol MIC to chloramphenicol MIC in presence of compound by micro-broth dilution method. The format is functional, organism-based.
In test [11] the test system is Klebsiella aerogenes. Briefly: Reduction of multidrug-resistant in Enterobacter aerogenes Ea289 assessed as ratio of chloramphenicol MIC to chloramphenicol MIC in presence of compound at 75 uM by micro-broth dilution method. The format is functional.
In another test the test system is CHO. Kind of test: Cytotoxicity against CHO cells. It is filed as cell-based. To be noted: Cricetulus griseus.
Test [12] concerns Salmonella typhimurium. Briefly: Reduction of multidrug-resistant in Salmonella enterica Typhimurium BN10055 assessed as ratio of chloramphenicol MIC to chloramphenicol MIC in presence of compound at 75 uM by micro-broth dilution method. It is filed as functional, Salmonella enterica subsp. enterica serovar Typhimurium.
In test [13] the test system is Klebsiella aerogenes. Briefly: Reduction of multidrug-resistant in Enterobacter aerogenes Ea294 harboring Ea289deltaacrB assessed as ratio of nalidixic acid MIC to nalidixic acid MIC in presence of compound by micro-broth dilution method. It is filed as functional, organism-based.
Test [14] relates to Klebsiella aerogenes. Briefly: Reduction of multidrug-resistant in Enterobacter aerogenes Ea289 assessed as ratio of nalidixic acid MIC to nalidixic acid MIC in presence of compound at 75 uM by micro-broth dilution method. The format is functional.
For test [15], the system named is Salmonella typhimurium. Briefly: Reduction of multidrug-resistant in Salmonella enterica Typhimurium BN10055 harboring deltaacrB assessed as ratio of nalidixic acid MIC to nalidixic acid MIC in presence of compound by micro-broth dilution method. The format is functional, organism-based. The note with it: Salmonella enterica subsp. enterica serovar Typhimurium.

The test system of test [16] is Salmonella typhimurium. Briefly: Reduction of multidrug-resistant in Salmonella enterica Typhimurium BN10055 harboring deltaacrB assessed as ratio of chloramphenicol MIC to chloramphenicol MIC in presence of compound by micro-broth dilution method. The format is functional, organism-based. To be noted: Salmonella enterica subsp. enterica serovar Typhimurium.
Test [17] concerns Salmonella typhimurium. Kind of test: Reduction of multidrug-resistant in Salmonella enterica Typhimurium BN10055 assessed as ratio of nalidixic acid MIC to nalidixic acid MIC in presence of compound at 75 uM by micro-broth dilution method. The format is functional, Salmonella enterica subsp. enterica serovar Typhimurium.

pIC50: −log10 of the molar value. In brackets after ≈: the same amount, converted by molar mass. Activity calls are given as the source filed them. Residues, ends and D or L forms follow the SMILES beside them. *: point of attachment. βNA = c1ccc2cc(N*)ccc2c1

Regarding `CC(C)=CCC/C(C)=C/C(=O)NCCCNCCCCNCCCN`, the inhibition entry in test [1] was “Dose-dependent effect”.
For the compound `O=C(N[C@H](CO)[C@H](O)c1ccc([N+](=O)[O-])cc1)C(Cl)Cl` [CHLORAMPHENICOL], the minimum inhibitory concentration (MIC) in the test with Klebsiella aerogenes [2] was found to be 3200 µM (≈ 1030 µg/mL); in the test on Salmonella typhimurium [3], 200 µM (≈ 64.6 µg/mL); with Klebsiella aerogenes [4], 200 µM (≈ 64.6 µg/mL); against Salmonella typhimurium [5], 3200 µM (≈ 1030 µg/mL).
Consider `N=C(N)NCCC[C@H](NC(=O)[C@@H](N)Cc1ccccc1)C(=O)Nc1ccc2ccccc2c1` [PABETAN] (H-Phe-Arg-βNA), for which the MIC in the test with Klebsiella aerogenes [2] amounted to 2430 µM (≈ 1090 µg/mL); in the test on Salmonella typhimurium [3], 150 µM (≈ 67 µg/mL); in the test on Klebsiella aerogenes [4] it was 150 µM (≈ 67 µg/mL); against Salmonella typhimurium [5], 1220 µM (≈ 543 µg/mL). Moreover, the Ratio came to 16 with Klebsiella aerogenes [6], 8 with Klebsiella aerogenes [7], 64 in the test on Salmonella typhimurium [8] and 8 with Salmonella typhimurium [9].
For the compound `CC[C@H]1OC(=O)[C@H](C)[C@@H](O[C@H]2C[C@@](C)(OC)[C@@H](O)[C@H](C)O2)[C@H](C)[C@@H](O[C@@H]2O[C@H](C)C[C@H](N(C)C)[C@H]2O)[C@](C)(O)C[C@@H](C)C(=O)[C@H](C)[C@@H](O)[C@]1(C)O` [ERYTHROMYCIN], the MIC in the test on Klebsiella aerogenes [2] was 350 µM (≈ 257 µg/mL); against Salmonella typhimurium [3], 55 µM (≈ 40.4 µg/mL); against Klebsiella aerogenes [4], 110 µM (≈ 80.7 µg/mL); against Salmonella typhimurium [5], 350 µM (≈ 257 µg/mL).
For the compound `C[C@H]1c2cccc(O)c2C(=O)C2=C(O)[C@]3(O)C(=O)C(C(N)=O)=C(O)[C@@H](N(C)C)[C@@H]3[C@@H](O)[C@@H]21` [DOXYCYCLINE], the MIC in the test with Klebsiella aerogenes [2] was 72 µM (≈ 32 µg/mL); in the test with Salmonella typhimurium [3], 4.5 µM (≈ 2 µg/mL); in the test on Klebsiella aerogenes [4] it was 2.25 µM (≈ 1 µg/mL); in the test on Salmonella typhimurium [5], 144 µM (≈ 64 µg/mL).
`CCn1cc(C(=O)O)c(=O)c2ccc(C)nc21` [NALIDIXIC ACID]: the MIC in the test on Klebsiella aerogenes [2] worked out at 17600 µM (≈ 4090 µg/mL); against Salmonella typhimurium [3], 275 µM (≈ 63.9 µg/mL); in the test with Klebsiella aerogenes [4], 4400 µM (≈ 1020 µg/mL); in the test on Salmonella typhimurium [5], 17600 µM (≈ 4090 µg/mL).
As for `CC(C)=CCC/C(C)=C/C(=O)NCCCN1CCOCC1`, the MIC with Klebsiella aerogenes [2], in the test with Klebsiella aerogenes [4] and against Salmonella typhimurium [5] was over 250 µM in each case. For the same compound, the outcome with Klebsiella aerogenes [10], with Klebsiella aerogenes [13], with Salmonella typhimurium [15] and with Salmonella typhimurium [16] was inactive. Besides, the Ratio in the test with Klebsiella aerogenes [11], in the test with Salmonella typhimurium [12], with Klebsiella aerogenes [14] and with Salmonella typhimurium [17] was 1 each time. Besides, the negative-log IC50 (pIC50) with CHO is under 3.82.
